According to US20080009418A1, “Selective Inhibitors” (Alchemia LTD., priority 2004, published 2008):

Assays:
Human δ-opioid (DOP) = biological target: T1, Human δ-opioid (DOP) (Homo sapiens, UniProt P41143); assay: Radioligand binding, human δ-opioid (DOP) membranes, FlashPlate, [3H]-Bremazocine; details: compound at 10 μM; [3H]-Bremazocine
T1 construct: purchased Perkin Elmer Biosignal
Method in brief: (§1)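 Cloned human receptor membranes were coated onto FlashPlate wells and incubated with radioligand and compound (added from a 0.5 mM DMSO daughter plate) for 1 hour at room temperature in the dark. Scintillation counting gave percent inhibition, with DMSO defining total and reference ligand defining non-specific binding.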

Human κ-Opioid (KOP) = biological target: T2, Human κ-Opioid (KOP) (Homo sapiens, UniProt P41145); assay: Radioligand binding, human κ-opioid (KOP) membranes, filtration, [3H]-Diprenorphine; details: compound at 10 μM, [3H]-Diprenorphine
T2 construct: purchased Perkin Elmer Biosignal
Method in brief: (§2)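 Filtration binding on cloned human receptor membranes (1 Unit/well), [125I]-Substance P for NK1 and [3H]-Diprenorphine for KOP, 1 h at room temperature. Filters PEI-presoaked, washed with cold 50 mM Tris-HCl pH 7.4, counted by scintillation; percent inhibition calculated, reference ligand defining non-specific binding.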

Human Melanocortin (MC3) = biological target: T3, Human Melanocortin (MC3) (Homo sapiens, UniProt P41968); assay: Radioligand binding, human melanocortin MC3 membranes, FlashPlate, [125I]-NDP-αMSH; details: compound at 10 μM; [125I]-NDP-αMSH
T3 construct: purchased Perkin Elmer Biosignal
Method in brief: as §1

Human Melanocortin (MC4) = biological target: T4, Human Melanocortin (MC4) (Homo sapiens, UniProt P32245); assay: Radioligand binding, human melanocortin MC4 membranes, FlashPlate, [125I]-NDP-αMSH; details: compound at 10 μM; [125I]-NDP-αMSH
T4 construct: purchased Perkin Elmer Biosignal
Method in brief: as §1

Human melanocortin (MC5) = biological target: T5, Human melanocortin (MC5) (Homo sapiens, UniProt P33032); assay: Radioligand binding, human melanocortin MC5 membranes, FlashPlate, [125I]-NDP-αMSH; details: compound at 10 μM; [125I]-NDP-αMSH
T5 construct: purchased Perkin Elmer Biosignal
Method in brief: as §1

[1] = biological target: T6, Human melanin-concentrating hormone (MCH1) (Homo sapiens, UniProt Q99705); assay: Radioligand binding, human melanin-concentrating hormone MCH1 membranes, FlashPlate, [125I]-S36057; details: compound at 10 μM; [125I]-S36057
T6 construct: purchased Perkin Elmer Biosignal
Method in brief: as §1

Human μ-opioid (MOP) = biological target: T7, Human μ-opioid (MOP) (Homo sapiens, UniProt P35372); assay: Radioligand binding, human μ-opioid (MOP) membranes, FlashPlate, [3H]-Naloxone; details: compound at 10 μM; [3H]-Naloxone
T7 construct: purchased Perkin Elmer Biosignal
Method in brief: as §1

Human neurokinin (NK1) = biological target: T8, Human neurokinin (NK1) (Homo sapiens, UniProt P25103); assay: Radioligand binding, human neurokinin NK1 membranes, filtration, [125I]-Substance P; details: compound at 10 μM; [125I]-Substance P
T8 construct: purchased Perkin Elmer Biosignal
Method in brief: as §2

[2] = biological target: T9, Human neuropeptide Y (NPY-Y1) (Homo sapiens, UniProt P25929); assay: Radioligand binding, human neuropeptide Y NPY-Y1 membranes, FlashPlate, [125I]-PYY; details: compound at 10 μM; [125I]-PYY
T9 construct: purchased Perkin Elmer Biosignal
T9 sequence (P25929 1-384): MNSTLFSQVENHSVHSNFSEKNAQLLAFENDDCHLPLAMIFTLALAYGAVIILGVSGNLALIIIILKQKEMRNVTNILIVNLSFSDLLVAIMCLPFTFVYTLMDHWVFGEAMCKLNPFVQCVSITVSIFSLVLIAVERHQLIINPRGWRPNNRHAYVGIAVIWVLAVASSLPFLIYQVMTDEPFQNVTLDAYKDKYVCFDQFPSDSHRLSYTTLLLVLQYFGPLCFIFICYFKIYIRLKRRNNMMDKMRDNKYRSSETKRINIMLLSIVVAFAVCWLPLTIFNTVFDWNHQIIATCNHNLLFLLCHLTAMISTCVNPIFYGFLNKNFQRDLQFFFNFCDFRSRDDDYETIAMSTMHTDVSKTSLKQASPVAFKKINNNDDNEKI
Method in brief: as §1

Human opioid (ORL1) = biological target: T10, Human opioid (ORL1) (Homo sapiens, UniProt P41146); assay: Radioligand binding, human opioid ORL1 membranes, FlashPlate, [125I]-Nociceptin; details: compound at 10 μM; [125I]-Nociceptin
T10 construct: purchased Perkin Elmer Biosignal
Method in brief: as §1

Mouse urotensin (mUR2) = biological target: T11, Mouse urotensin (mUR2) (Mus musculus, UniProt Q8VIH9); assay: Radioligand binding, mouse urotensin mUR2 membranes, FlashPlate, [125I]-Urotensin II; details: compound at 10 μM; [125I]-Urotensin II
T11 construct: purchased Perkin Elmer Biosignal
T11 sequence (Q8VIH9 1-385): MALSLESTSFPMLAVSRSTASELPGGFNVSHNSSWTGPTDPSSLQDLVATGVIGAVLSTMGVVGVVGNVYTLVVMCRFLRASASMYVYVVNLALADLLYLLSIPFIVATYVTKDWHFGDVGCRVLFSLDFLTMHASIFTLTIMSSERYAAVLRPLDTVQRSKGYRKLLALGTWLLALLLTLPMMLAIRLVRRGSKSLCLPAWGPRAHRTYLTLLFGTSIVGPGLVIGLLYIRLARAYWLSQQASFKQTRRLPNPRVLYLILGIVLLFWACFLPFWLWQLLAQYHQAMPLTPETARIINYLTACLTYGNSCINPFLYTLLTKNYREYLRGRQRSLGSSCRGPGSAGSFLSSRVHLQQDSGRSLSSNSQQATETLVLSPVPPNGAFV
Method in brief: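 Cloned mouse urotensin (mUR2) receptor membranes from Perkin Elmer Biosignal were immobilized in FlashPlate microplates using a proprietary coating. Each well got 19.5 μl buffer, then 0.5 μl of DMSO, reference ligand, or compound. Adding 5 μl of [125I]-Urotensin II, diluted to 5× final concentration in binding buffer, started binding. Plates were sealed with TopSeal-A and incubated 1 hour at room temperature in the dark. Wells were counted for 30 seconds each on a TopCount after a 60-second delay, and percentage inhibition was calculated.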

T4 sequence (P32245 whole entry): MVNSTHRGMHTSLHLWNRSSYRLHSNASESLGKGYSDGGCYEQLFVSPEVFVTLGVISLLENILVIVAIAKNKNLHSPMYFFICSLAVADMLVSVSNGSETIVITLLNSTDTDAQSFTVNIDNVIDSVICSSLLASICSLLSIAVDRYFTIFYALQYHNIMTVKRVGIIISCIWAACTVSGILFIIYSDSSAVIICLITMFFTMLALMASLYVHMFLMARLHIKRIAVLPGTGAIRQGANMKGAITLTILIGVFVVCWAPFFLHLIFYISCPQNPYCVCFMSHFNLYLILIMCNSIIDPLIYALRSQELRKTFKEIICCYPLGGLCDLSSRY
T6 sequence (Q99705 whole entry): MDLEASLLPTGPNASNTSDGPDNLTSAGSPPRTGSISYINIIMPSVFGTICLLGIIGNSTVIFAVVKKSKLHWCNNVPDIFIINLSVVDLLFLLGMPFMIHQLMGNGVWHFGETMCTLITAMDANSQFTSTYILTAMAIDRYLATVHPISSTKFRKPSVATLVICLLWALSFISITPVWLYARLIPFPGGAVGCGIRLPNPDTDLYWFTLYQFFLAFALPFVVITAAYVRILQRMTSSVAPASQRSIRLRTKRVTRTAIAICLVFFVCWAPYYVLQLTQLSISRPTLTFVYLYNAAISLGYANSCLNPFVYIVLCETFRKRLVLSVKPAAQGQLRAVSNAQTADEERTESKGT
T10 sequence (P41146 whole entry): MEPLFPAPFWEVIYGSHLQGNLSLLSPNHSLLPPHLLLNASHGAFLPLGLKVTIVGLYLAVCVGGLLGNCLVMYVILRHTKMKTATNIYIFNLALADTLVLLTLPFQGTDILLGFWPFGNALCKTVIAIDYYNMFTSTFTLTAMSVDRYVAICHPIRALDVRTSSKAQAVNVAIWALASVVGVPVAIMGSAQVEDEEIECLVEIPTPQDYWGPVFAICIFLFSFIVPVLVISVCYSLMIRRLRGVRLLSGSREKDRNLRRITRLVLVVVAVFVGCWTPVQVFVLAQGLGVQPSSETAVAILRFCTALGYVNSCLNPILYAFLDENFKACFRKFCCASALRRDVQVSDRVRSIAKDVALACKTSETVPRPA
T1 sequence (P41143 whole entry): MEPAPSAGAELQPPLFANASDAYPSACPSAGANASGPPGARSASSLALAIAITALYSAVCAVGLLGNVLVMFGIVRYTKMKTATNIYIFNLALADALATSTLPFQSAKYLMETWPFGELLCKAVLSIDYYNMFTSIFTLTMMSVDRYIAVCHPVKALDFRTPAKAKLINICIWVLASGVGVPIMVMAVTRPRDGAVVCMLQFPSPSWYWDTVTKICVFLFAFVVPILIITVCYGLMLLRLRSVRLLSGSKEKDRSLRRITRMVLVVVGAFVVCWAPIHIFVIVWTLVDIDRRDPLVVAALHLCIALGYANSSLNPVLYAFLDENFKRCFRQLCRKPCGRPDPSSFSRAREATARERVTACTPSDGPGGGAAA
T7 sequence (P35372 whole entry): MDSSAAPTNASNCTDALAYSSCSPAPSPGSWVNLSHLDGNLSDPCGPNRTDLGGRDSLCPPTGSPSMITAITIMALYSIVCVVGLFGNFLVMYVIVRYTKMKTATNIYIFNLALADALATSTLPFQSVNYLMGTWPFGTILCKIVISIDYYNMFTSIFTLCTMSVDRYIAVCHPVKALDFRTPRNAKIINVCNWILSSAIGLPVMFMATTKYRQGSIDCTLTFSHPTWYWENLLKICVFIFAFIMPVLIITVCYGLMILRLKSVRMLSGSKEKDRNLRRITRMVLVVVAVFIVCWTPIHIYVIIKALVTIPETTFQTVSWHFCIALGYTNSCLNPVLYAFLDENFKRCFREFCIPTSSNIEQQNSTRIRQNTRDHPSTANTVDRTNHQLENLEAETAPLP
T8 sequence (P25103 whole entry): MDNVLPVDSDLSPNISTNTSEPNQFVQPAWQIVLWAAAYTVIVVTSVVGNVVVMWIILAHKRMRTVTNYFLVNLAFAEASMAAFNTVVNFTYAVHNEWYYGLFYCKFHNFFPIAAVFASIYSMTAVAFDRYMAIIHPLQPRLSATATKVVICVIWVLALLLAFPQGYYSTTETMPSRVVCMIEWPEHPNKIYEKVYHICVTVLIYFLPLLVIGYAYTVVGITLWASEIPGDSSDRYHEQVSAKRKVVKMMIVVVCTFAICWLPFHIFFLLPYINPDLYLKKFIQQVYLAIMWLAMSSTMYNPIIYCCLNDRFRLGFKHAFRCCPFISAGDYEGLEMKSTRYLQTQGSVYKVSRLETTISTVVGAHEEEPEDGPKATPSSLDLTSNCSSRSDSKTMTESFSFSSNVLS
T2 sequence (P41145 whole entry): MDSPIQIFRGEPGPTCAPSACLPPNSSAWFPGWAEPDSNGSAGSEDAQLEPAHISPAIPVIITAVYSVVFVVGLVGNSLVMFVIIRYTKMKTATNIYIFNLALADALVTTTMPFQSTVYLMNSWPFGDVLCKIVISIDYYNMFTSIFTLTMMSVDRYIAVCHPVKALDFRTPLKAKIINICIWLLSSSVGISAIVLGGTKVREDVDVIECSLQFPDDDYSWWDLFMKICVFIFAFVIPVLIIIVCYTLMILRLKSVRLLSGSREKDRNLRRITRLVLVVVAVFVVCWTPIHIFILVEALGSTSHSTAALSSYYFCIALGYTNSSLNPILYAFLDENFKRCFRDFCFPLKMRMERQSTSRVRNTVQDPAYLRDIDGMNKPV
T5 sequence (P33032 whole entry): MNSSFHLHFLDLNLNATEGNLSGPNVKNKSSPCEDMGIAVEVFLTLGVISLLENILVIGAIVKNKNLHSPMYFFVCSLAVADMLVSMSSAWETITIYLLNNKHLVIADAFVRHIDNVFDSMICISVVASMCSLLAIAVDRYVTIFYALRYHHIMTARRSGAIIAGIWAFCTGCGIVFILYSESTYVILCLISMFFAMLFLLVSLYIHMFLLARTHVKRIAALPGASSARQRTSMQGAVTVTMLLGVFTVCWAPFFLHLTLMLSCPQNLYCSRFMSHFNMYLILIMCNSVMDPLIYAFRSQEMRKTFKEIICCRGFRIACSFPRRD
T3 sequence (P41968 whole entry): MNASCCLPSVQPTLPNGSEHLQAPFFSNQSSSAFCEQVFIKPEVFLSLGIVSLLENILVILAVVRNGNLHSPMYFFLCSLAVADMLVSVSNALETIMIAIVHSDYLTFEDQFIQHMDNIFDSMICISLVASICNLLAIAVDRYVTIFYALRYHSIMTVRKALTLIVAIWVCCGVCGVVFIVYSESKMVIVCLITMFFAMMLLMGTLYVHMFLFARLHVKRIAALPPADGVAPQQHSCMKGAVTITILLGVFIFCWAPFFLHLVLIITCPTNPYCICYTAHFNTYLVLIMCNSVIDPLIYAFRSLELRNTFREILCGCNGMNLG

Compound	A1: inhibition of radioligand binding, human δ-opioid (DOP) (Human δ-opioid (DOP))	A2: inhibition of radioligand binding, human κ-opioid (KOP) (Human κ-Opioid (KOP); 10 µM)	A3: inhibition of radioligand binding, human melanocortin (MC3) (Human Melanocortin (MC3))	A4: inhibition of radioligand binding, human melanocortin (MC4) (Human Melanocortin (MC4))	A5: inhibition of radioligand binding, human melanocortin (MC5) (Human melanocortin (MC5))	A6: inhibition of radioligand binding, human melanin-concentrating hormone (MCH1) [1]	A7: inhibition of radioligand binding, human μ-opioid (MOP) (Human μ-opioid (MOP))	A8: inhibition of radioligand binding, human neurokinin (NK1) (Human neurokinin (NK1))	A9: inhibition of radioligand binding, human neuropeptide Y (NPY-Y1) [2]	A10: inhibition of radioligand binding, human opioid (ORL1) (Human opioid (ORL1))	A11: inhibition of radioligand binding, mouse urotensin (mUR2) (Mouse urotensin (mUR2))	A2: inhibition of radioligand binding, human κ-opioid (KOP) (Human κ-Opioid (KOP))
NCCC(=O)NC1C(OCc2ccc(Cl)cc2)OC(COCc2ccc(Cl)cc2)C(O)C1OCc1ccc2ccccc2c1 (single isomer, unassigned) [compound 482]	− (“−” indicates less than 50% inhibition at 10 μM)	− (“−” indicates less than 50% inhibition at 10 μM)	+ (“+” indicates greater than 50% inhibition at 10 μM)	+ (“+” indicates greater than 50% inhibition at 10 μM)	+ (“+” indicates greater than 50% inhibition at 10 μM)	+ (“+” indicates greater than 50% inhibition at 10 μM)	− (“−” indicates less than 50% inhibition at 10 μM)	+ (“+” indicates greater than 50% inhibition at 10 μM)	− (“−” indicates less than 50% inhibition at 10 μM)	+ (“+” indicates greater than 50% inhibition at 10 μM)	− (“−” indicates less than 50% inhibition at 10 μM)	
NCCC(=O)NC1C(OCc2ccc(Cl)cc2)OC(COCc2ccc3ccccc3c2)C(O)C1OCc1ccccc1 (single isomer, unassigned) [compound 483]	− (“−” indicates less than 50% inhibition at 10 μM)		− (“−” indicates less than 50% inhibition at 10 μM)	− (“−” indicates less than 50% inhibition at 10 μM)	+ (“+” indicates greater than 50% inhibition at 10 μM)	− (“−” indicates less than 50% inhibition at 10 μM)	− (“−” indicates less than 50% inhibition at 10 μM)	+ (“+” indicates greater than 50% inhibition at 10 μM)	− (“−” indicates less than 50% inhibition at 10 μM)	− (“−” indicates less than 50% inhibition at 10 μM)	− (“−” indicates less than 50% inhibition at 10 μM)	− (“−” indicates less than 50% inhibition at 10 μM)
NCCC(=O)NC1C(OCc2ccc(Cl)cc2)OC(COCc2ccc3ccccc3c2)C(O)C1OCc1ccccc1 (single isomer, unassigned) [compound 484]	− (“−” indicates less than 50% inhibition at 10 μM)		− (“−” indicates less than 50% inhibition at 10 μM)	− (“−” indicates less than 50% inhibition at 10 μM)	+ (“+” indicates greater than 50% inhibition at 10 μM)	− (“−” indicates less than 50% inhibition at 10 μM)	− (“−” indicates less than 50% inhibition at 10 μM)	+ (“+” indicates greater than 50% inhibition at 10 μM)	− (“−” indicates less than 50% inhibition at 10 μM)	− (“−” indicates less than 50% inhibition at 10 μM)	− (“−” indicates less than 50% inhibition at 10 μM)	− (“−” indicates less than 50% inhibition at 10 μM)
NCCC(=O)NC1C(OCc2ccc(Cl)cc2)OC(COCc2ccccc2)C(O)C1OCc1ccccc1 (single isomer, unassigned) [compound 485]	− (“−” indicates less than 50% inhibition at 10 μM)		− (“−” indicates less than 50% inhibition at 10 μM)	− (“−” indicates less than 50% inhibition at 10 μM)	− (“−” indicates less than 50% inhibition at 10 μM)	− (“−” indicates less than 50% inhibition at 10 μM)	− (“−” indicates less than 50% inhibition at 10 μM)	+ (“+” indicates greater than 50% inhibition at 10 μM)	− (“−” indicates less than 50% inhibition at 10 μM)	− (“−” indicates less than 50% inhibition at 10 μM)	− (“−” indicates less than 50% inhibition at 10 μM)	− (“−” indicates less than 50% inhibition at 10 μM)
NCCC(=O)NC1C(OCc2ccc(Cl)cc2)OC(COCc2ccccc2)C(O)C1OCc1ccccc1 (single isomer, unassigned) [compound 486]	− (“−” indicates less than 50% inhibition at 10 μM)		− (“−” indicates less than 50% inhibition at 10 μM)	− (“−” indicates less than 50% inhibition at 10 μM)	− (“−” indicates less than 50% inhibition at 10 μM)	− (“−” indicates less than 50% inhibition at 10 μM)	− (“−” indicates less than 50% inhibition at 10 μM)	+ (“+” indicates greater than 50% inhibition at 10 μM)	− (“−” indicates less than 50% inhibition at 10 μM)	− (“−” indicates less than 50% inhibition at 10 μM)	− (“−” indicates less than 50% inhibition at 10 μM)	− (“−” indicates less than 50% inhibition at 10 μM)
